This is an account of results in patent US8530434B2, “Nitroxide free radical synergized antineoplastic agents” (The Trustees of California State University, priority 2006, dated 2013).

Entries after “also recorded” stand apart in the source; their conditions may differ.

The test system of data set [1] is short single strand DNA units comprising of 3′-ATCGT-5′. Briefly: 1H and 31P NMR study of interaction with short single strand DNA. It counts as binding. The conditions noted are these: 1:1 molar ratio with DNA in DMSO-d6, 600 MHz NMR. The text has this: (§1) We did the ^1H and ^31P NMR experiments at a 600 MHz NMR spectrometer for all three samples.
In data set [2] the test system is MCF-7, human breast cancer cells and KB, human liver cancer cells. Briefly: LDH measurement of cytotoxicity. The conditions noted are these: for % cytotoxicity: LDH assay, 72 hours incubation, same conditions and same concentrations, rank among the four treatments, cell line not specified. The procedure:
MCF-7, human breast cancer cells and KB, human liver cancer cells were maintained in an RPMI 1640 medium, which was supplemented with 10% (v/v) heat-inactivated FBS and 1% (v/v) penicillin-streptomycin (100 U/mL penicillin G and 100 μg/mL streptomycin). The cells were incubated and then allowed to grow into a monolayer at a Petri dish at 37° C. in 5% CO2 and 90% relative humidity. The cells were detached by trypsinisation. Specifically, to detach the monolayer of cells, the medium was removed from the cell culture dish and the cells were washed by PBS buffer solution. Then 1 mL of the enzyme of trypsin was transferred to the cell dish and then the dish was incubated for 3 min. After the incubation, we transferred 4 mL of the RPMI 1640 medium to the cell dish and pipetted the cell suspension up and down to mix them well. The cell suspension was examined by inverted phase contrast microscope to make sure cells were separated into a single cell suspension. We transferred the cell suspension to a 10 mL-tube and centrifuged it to separate cell pellet from the medium. The cells were washed twice in the RPMI 1640 medium by centrifugation at 300×g for 5 min, and then the washed cells were re-suspended in 10 mL of medium. Cell number and viability were determined by using a dye of trypan blue, a special counting chamber, the hemocytometer and microscope. The cell density was calculated by the formula, cell concentration=(N1+N2+N3+N4+N5)×4×10^3 cells/mL, where N1 to N5 denote the counting numbers in the chamber. The cell suspension was diluted to a final concentration of 100,000 cells/mL in the RPMI 1640 medium.
The cells were initially seeded in a 96-well plate with a cell density of 10,000 cells per well by transferring 100 μL of 100,000 cells/mL suspension to each well using a multi-pipette. The 96-well plate was incubated for 24 hours at 37° C. in a humidified, 5% CO2 atmosphere. After incubation of 24 h, the growth medium was removed and replaced with 100 μL of fresh medium with different concentrations of drugs in 3 repeats.
Performed serial two-fold dilution from Row H to Row A. Use extra column as the negative control containing 100 μL of the medium and cells only. Before the drug solutions were administered, removed the growth medium from each well and then replace 100 μL of each drug solution. Each concentration had 3 repeats. Incubate the plate for 72 hours.
10 μl of Lysis Solution was added from row A to H, and incubated for 45 minutes in a humidified chamber at 37° C., under 5% CO2.
50 μl supernatant was transferred from all wells to a fresh 96-well flat bottom enzymatic assay plate. […] 50 μl Stop Solution was added to each well, and the absorbances were recorded at a wavelength of 490 nm within one hour after adding the stop solution.

Data set [3] can be described thus: Solubility in D2O (sample preparation for NMR).
Source text: as §1

In the case of `CC1(C)CC(O)CC(C)(C)N1[O]` [TEMPOL, 4-hydroxy-2,2,6,6-tetramethylpiperidine-N-oxyl], the “interaction with DNA (changes of 1H and 31P NMR spectra)” value in data set [1] is reported as “interacts with DNA”. In addition, the “% cytotoxicity” value in data set [2] was “the least; also recorded: very low % cytotoxicity”.
With `CC1(C)CC(OC(=O)CCCc2ccc(N(CCCl)CCCl)cc2)CC(C)(C)N1[O]` [chlorambucil-TEMPOL adduct], the “interaction with DNA (changes of 1H and 31P NMR spectra)” value in data set [1] was “interact with the DNA collaboratively”. For the same molecule, in data set [2], the “% cytotoxicity” value is “the most % cytotoxicity”. Further, the “potency compared with co-administration of the two drugs” value in data set [2] (summary statement) is “higher potency than mere co-administration of the two drugs”. The “solubility in D2O” value in data set [3] was “weakly soluble”.
`O=C(O)CCCc1ccc(N(CCCl)CCCl)cc1` [chlorambucil]: the “interaction with DNA (changes of 1H and 31P NMR spectra)” value in data set [1] is given as “interaction of the alkylating agent with DNA”. In addition, in data set [2], the “% cytotoxicity” value is recorded as “the third”. Besides, the “solubility in D2O” value in data set [3] is on record as “weakly soluble”.
